Tests used:
blood sugar levels = assay: Effect of controlling increase of blood sugar levels in sucrose-loaded rats; assay type: in vivo, rats of the SD series; details: Rattus norvegicus, po, 3 h; 2 g/Kg sucrose and 5 mg/Kg test compound orally; ΔAUC over 180 minutes; male SD rats; read-out: Blood Level Increase Inhibition Ratio (%)
Description: [Effect of Controlling Increase of Blood Sugar Levels]
Five-week-old male rats of the SD series are divided into groups, each consisting of 4 rats, and 2 g/Kg of sucrose and 5 mg/Kg of the test compound are orally administered. Blood is collected from the tail veins at predetermined intervals over a period of 180 minutes from the point of administration and the blood level values are measured. The area (ΔAUC) below the time-blood level increase curve is determined. The blood level increase inhibition ratio of the test compound is calculated from the basal value obtained in the group to which water alone has been administered and the control value obtained in the group to which sucrose alone has been administered according to the following formula: [formula]

[1] = biological target: T1, α-1,4-glucanglucohydrolase (Rhizopus arrhizus, UniProt P07683); assay: Decomposition of the substance by α-1,4-glucanglucohydrolase (glucose release); assay type: biochemical
T1 sequence (P07683 26-604): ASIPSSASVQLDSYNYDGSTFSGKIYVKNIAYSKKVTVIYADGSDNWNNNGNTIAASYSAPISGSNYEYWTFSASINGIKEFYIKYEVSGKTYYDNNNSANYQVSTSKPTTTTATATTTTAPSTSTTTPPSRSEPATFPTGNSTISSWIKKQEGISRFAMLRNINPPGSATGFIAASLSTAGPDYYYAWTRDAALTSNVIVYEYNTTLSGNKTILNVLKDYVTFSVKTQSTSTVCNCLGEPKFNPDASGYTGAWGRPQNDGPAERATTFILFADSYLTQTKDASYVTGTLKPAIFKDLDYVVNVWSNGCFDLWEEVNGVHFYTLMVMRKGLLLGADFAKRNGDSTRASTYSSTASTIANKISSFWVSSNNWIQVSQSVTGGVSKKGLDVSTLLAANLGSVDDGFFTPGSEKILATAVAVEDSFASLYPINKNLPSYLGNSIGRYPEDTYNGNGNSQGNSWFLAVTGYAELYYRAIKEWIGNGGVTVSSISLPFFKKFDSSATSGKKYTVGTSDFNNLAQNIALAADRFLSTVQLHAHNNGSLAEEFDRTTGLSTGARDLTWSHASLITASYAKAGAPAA
Source text: Practically, reactions of the respective stages are advanced on a mixture of compounds differing in the glucose number (m). Accordingly, in order to accumulate intended G-MR in the liquid reaction mixture, it is indispensable that rate constants should be sufficiently high but the rate constant k1 should be sufficiently low. FIG. 4 clarifies this point. FIG. 4 will now be explained. A predetermined amount of N-methyloligoglycosylmoranoline is adsorbed on 1 g of Dowex 50W×2 (H^+) in an Erlenmeyer flask having a capacity of 125 ml, and they are suspended in 50 ml of distilled water and 10 mg of α-1,4-glucanglucohydrolase is added to the suspension. Incubation is carried out at 40° C., and 500 μl of the liquid is sampled at predetermined intervals and the amount of glucose is determined. When maltose is used as the substrate, it is mixed with 1 g of Dowex 50W×2 (H^+) and in this state, incubation is carried out at 40° C.
1 ml of 0.3 N Ba(OH)2 and 1 ml of 5% ZnSO4 are added to 500 μl of the reaction mixture liquid and centifugal separation is carried out under a load of 2000 g for 10 minutes. 30 μl of the supernatant is taken and 3 ml of a commercially available glucose color reagent (manufactured by Boehunger Mannheim Co.; new blood sugar test) is added to the sampled supernatant. The mixture is sufficiently stirred and allowed to stand at room temperature for 35 minutes and the absorbance at 420 nm is measured. Separately, a glucose reference reagent (9.1 mg/dl) is similarly treated and the absorbance at 420 nm is measured. Based on these measurements, the amount of glucose formed in the reaction mixture liquid is determined.
About 22 units/mg of α-1,4-glucanglucohydrolase (crystal) derived from Rhizopus niveus (supplied by Seikagaku Kogyo K.K.)
The reaction time is plotted on the abscissa and the ratio of decomposition based on complete decomposition of glucose is plotted on the ordinate. […] After determination of the amount of glucose, the reaction liquid is filtered and the ion exchange resin (Dowex 50W×2) is collected, washed with water sufficiently and eluted with 0.5 N aqueous ammonia. The eluate is concentrated under reduced pressure and dried to the solid. The solid is dissolved in distilled water and subjected to high speed liquid chromatography (Model ALC/GPC-244 supplied by Waters Co., μ-Bondapak NH2 column, acetonitrile/water=70/30, 1.5 cc/min), and the reaction product is identified by a chromatopac Model C-R1A supplied by Shimadzu Seisakusho K. K. The ratios of formation of N-methylmoranoline are […] in case of 4-(α-D-glucosyl)-N-methylmoranoline, 4-(α-D-amltosyl)-N-methylmoranoline, 4-(α-D-maltotriosyl)-N-methylmoranoline and 4-(α-D-maltotetraosyl)-N-methylmoranoline, respectively. […]

[2] = biological target: T2, α-1,4-glucanglucohydrolase (glucoamylase) (Rhizopus arrhizus, UniProt P07683); assay: Inhibition of α-1,4-glucanglucohydrolase (glucoamylase), soluble starch substrate; assay type: biochemical; details: read-out: percent inhibition at parenthesized concentration; for inhibition at 200 µg/mL: at 200 μg/ml (printed >200 μg/ml)
T2 sequence (P07683 26-604): T1 sequence (P07683 26-604)
Description: Moranoline, N-lower-alkylmoranolines, oligoglycosylmoranolines and N-lower-alkyloligoglucosylmoranolines inhibit the activity of α-1,4-glucanglucohydrolase. The inhibition is determined according to the following method.
Glucoamylase (crystal) derived from Rhizopus nivens (supplied by Seikagaku Kogyo K. K.) is dissolved in distilled water so that the concentration is 50 μg/ml and the enzyme is used in the form of the so obtained solution.
Soluble starch is dissolved in a buffer solution at a high temperature so that the concentration is 1.4%, and the solution is cooled to room temperature and used.
0.1 M phosphate buffer solution (pH=5.7)
The starting liquid is incubated at 40° C. for 10 minutes, and 1 ml of a 0.3 N solution of Ba(OH)2 and 1 ml of a 5% solution of ZnSO4 are added. Centifugal separation is conducted under a load of 2000×g for 10 minutes, and 30 μl of the supernatant is sampled and 3 ml of a glucose color reagent (supplied by Boelunger Mannheim Co.; new blood sugar test) was added to the supernatant. The mixture was allowed to stand at room temperature for 35 minutes and the absorbance at 420 nm is measured. The percent inhibition is calculated according to the following formula: [formula] wherein C stands for the absorbance of the control, T stands for the absorbance of the test sample, B' stands for the absorbance of the blank (I), and B stands for the absorbance of the blank (II).
The percent inhibition is also determined in respect of dilutions, and the concentration (IC50) providing 50% inhibition is found. In Table 4, the percent inhibition obtained at a parenthesized concentration is shown when the inhibition is low.

SMILES	inhibition in vivo at 5 mg/kg (blood sugar levels) [%]	also measured
CN1C[C@H](O)[C@@H](O)[C@H](O[C@H]2O[C@H](CO)[C@@H](O[C@H]3O[C@H](CO)[C@@H](O[C@H]4O[C@H](CO)[C@@H](O[C@H]5O[C@H](CO)[C@@H](O[C@H]6O[C@H](CO)[C@@H](O)[C@H](O)[C@H]6O)[C@H](O)[C@H]5O)[C@H](O)[C@H]4O)[C@H](O)[C@H]3O)[C@H](O)[C@H]2O)[C@H]1CO [4-(α-D-maltopentaosyl)-N-methylmoranoline]	23	
CCCN1C[C@H](O)[C@@H](O)[C@H](O[C@H]2O[C@H](CO)[C@@H](O)[C@H](O)[C@H]2O)[C@H]1CO [4-(α-D-glucosyl)-N-propylmoranoline]	24	
CN1C[C@H](O)[C@@H](O)[C@H](O[C@H]2O[C@H](CO)[C@@H](O)[C@H](O)[C@H]2O)[C@H]1CO [4-(α-D-glucosyl)-N-methylmoranoline]	56	decomposition by α-1,4-glucanglucohydrolase (in words) ([1]; qualitative statement, FIG. 4): extremely small
CN1C[C@H](O)[C@@H](O)[C@H](O[C@H]2O[C@H](CO)[C@@H](O[C@H]3O[C@H](CO)[C@@H](O)[C@H](O)[C@H]3O)[C@H](O)[C@H]2O)[C@H]1CO [4-(α-D-maltosyl)-N-methylmoranoline]	62	
OC[C@H]1NC[C@H](O)[C@@H](O)[C@@H]1O [moranoline, Moranoline]	19	
CCN1C[C@H](O)[C@@H](O)[C@H](O[C@H]2O[C@H](CO)[C@@H](O[C@H]3O[C@H](CO)[C@@H](O)[C@H](O)[C@H]3O)[C@H](O)[C@H]2O)[C@H]1CO [4-(α-D-maltosyl)-N-ethylmoranoline]	35	
OC[C@H]1NC[C@H](O)[C@@H](O)[C@@H]1O[C@H]1O[C@H](CO)[C@@H](O[C@H]2O[C@H](CO)[C@@H](O)[C@H](O)[C@H]2O)[C@H](O)[C@H]1O [4-(α-D-maltosyl)-moranoline]	35	inhibition at 200 µg/mL [2]: 0%
OC[C@H]1NC[C@H](O)[C@@H](O)[C@@H]1O[C@H]1O[C@H](CO)[C@@H](O[C@H]2O[C@H](CO)[C@@H](O[C@H]3O[C@H](CO)[C@@H](O[C@H]4O[C@H](CO)[C@@H](O)[C@H](O)[C@H]4O)[C@H](O)[C@H]3O)[C@H](O)[C@H]2O)[C@H](O)[C@H]1O [4-(α-D-maltotetraosyl)-moranoline]	56	inhibition at 200 µg/mL [2]: 0%
CN1C[C@H](O)[C@@H](O)[C@H](O[C@H]2O[C@H](CO)[C@@H](O[C@H]3O[C@H](CO)[C@@H](O[C@H]4O[C@H](CO)[C@@H](O)[C@H](O)[C@H]4O)[C@H](O)[C@H]3O)[C@H](O)[C@H]2O)[C@H]1CO [4-(α-D-maltotriosyl)-N-methylmoranoline]	29	
CCN1C[C@H](O)[C@@H](O)[C@H](O[C@H]2O[C@H](CO)[C@@H](O)[C@H](O)[C@H]2O)[C@H]1CO [4-(α-D-glucosyl)-N-ethylmoranoline]	22	inhibition at 800 µg/mL ([2]; at 800 μg/ml (printed >800 μg/ml)): 38%
CN1C[C@H](O)[C@@H](O)[C@H](O[C@H]2O[C@H](CO)[C@@H](O[C@H]3O[C@H](CO)[C@@H](O[C@H]4O[C@H](CO)[C@@H](O[C@H]5O[C@H](CO)[C@@H](O)[C@H](O)[C@H]5O)[C@H](O)[C@H]4O)[C@H](O)[C@H]3O)[C@H](O)[C@H]2O)[C@H]1CO [4-(α-D-maltotetraosyl)-N-methylmoranoline]	25	
OC[C@H]1NC[C@H](O)[C@@H](O)[C@@H]1O[C@H]1O[C@H](CO)[C@@H](O[C@H]2O[C@H](CO)[C@@H](O[C@H]3O[C@H](CO)[C@@H](O)[C@H](O)[C@H]3O)[C@H](O)[C@H]2O)[C@H](O)[C@H]1O [4-(α-D-maltotriosyl)-moranoline]	31	inhibition at 200 µg/mL [2]: 0%
OC[C@H]1O[C@H](O[C@H]2[C@H](O)[C@@H](O)C(O)O[C@@H]2CO)[C@H](O)[C@@H](O)[C@@H]1O (stereo partly shown) [maltose, reference compound]		decomposition by α-1,4-glucanglucohydrolase (in words) ([1]; in 1 hour, 40° C., mixed with Dowex 50W×2 (H+)): decomposed substantially completely; decomposition by α-1,4-glucanglucohydrolase (in words) ([1]; qualitative statement, FIG. 4): promptly decomposed to glucose
OC[C@H]1NC[C@H](O)[C@@H](O)[C@@H]1O[C@H]1O[C@H](CO)[C@@H](O)[C@H](O)[C@H]1O [4-(α-D-glucosyl)-moranoline]	44	inhibition at 200 µg/mL [2]: 15%; decomposition by α-1,4-glucanglucohydrolase (in words) ([1]; qualitative statement, FIG. 4): hardly decomposed

From patent publication US4338433A, “Moranoline derivatives and process for preparation thereof” (Nippon Shinyaku Co. Ltd., priority 1979, dated 1982)
